Data on two molecules can be found in patent US7473415B2, “Near infrared fluorescent contrast agent and method for fluorescence imaging” (Fuji Photo Film Co., Ltd., priority 2002, dated 2009).

For this assay, the system named is mouse colon carcinoma (colon 26 carcinoma). Kind of assay: Fluorescence imaging test (Test Example 2), tumor bearing nude mice, excitation 740 nm. Format: in vivo. The protocol:
Tumor bearing mice were prepared in the same manner as Test Example 1, and conditions for irradiation was the same as those explained in Test Example 1. Compound 5, Compound 7, and Compound 10 were used as test compounds. Each of the test compounds (0.5 mg/ml) was dissolved in physiological saline or phosphate buffer (pH 7.4) and administered to the mice via a tail vein at the dose of 5.0 mg/Kg. For comparison, the following compound (Compound B, 5 mg/kg, i.v.) was administered to the mice.
Light was generated using a tunable, pulsed, solid state laser system consisting of an optical parametric oscillator (OPO) pumped by the third harmonic of a Nd:Yag laser (Coherent Inc.). An excitation wavelength of λex=740 nm was chosen and guided with an optical fiber to the tumor bearing nude mice. The dye-specific fluorescence exitance was imaged using a filter combination (Corion) and an intensified CCD camera (Roper Scientific.) at different times after dye administration (FIG. 4). Fluorescence imagings were taken before administration, and 1 min, 10 min, 30 min, 60 min, 2 hours, 4 hours, 24 hours after intravenous dye administration via the lateral tail venous at a standard dose of 5 mg/kg. In the first 60 min, the body temperature of the animals was kept at 38° C. with heating pad. Fluorescence imaging properties of the compounds were compared in nude mice tumor models. […]

Turning to `CC(/C=C/C=C1/N(CCC(=O)NC(CC(=O)O)C(=O)O)c2ccc3ccccc3c2C1(C)C)=C\C=C\C1=[N+](CCC(=O)NC(CC(=O)O)C(=O)O)c2ccc3ccccc3c2C1(C)C` (centres unmarked) [Compound 5], under “5.0 mg/Kg via tail vein”, the “tumor imaging as compared to the reference compound (Compound B)” value was “clear images of tumors at a shorter time”. `CC1(C)C(/C=C/C=C/C=C/C=C2/N(CCCCS(=O)(=O)[O-])c3ccc(C(=O)NCC(O)C(O)C(O)C(O)CO)cc3C2(C)C)=[N+](CCCCS(=O)(=O)[O-])c2ccc(C(=O)NCC(O)C(O)C(O)C(O)CO)cc21.[Na+]` (centres unmarked) [Compound B]: the “position of tumor within 1 hour after the administration” value (5 mg/kg, i.v., FIG. 8) is “not clear”.
